Data from patent US12331068B2, “Compositions and methods for inhibiting CD73” (Peloton Therapeutics, Inc., priority 2018, dated 2025).

Legend:
Human CD73 = biological target: T1, Human CD73 (Homo sapiens, UniProt P21589); test: CD73 Enzyme Assay (EnzChek PNP/MESG kinetic readout of AMP hydrolysis); type: biochemical; conditions: 0.25 nM hCD73, 25 μM AMP; read-out: CD73 Enzyme Assay IC50
T1 construct: purchased R&D Systems; host or cells: CHO cells
T1 sequence (P21589 27-549): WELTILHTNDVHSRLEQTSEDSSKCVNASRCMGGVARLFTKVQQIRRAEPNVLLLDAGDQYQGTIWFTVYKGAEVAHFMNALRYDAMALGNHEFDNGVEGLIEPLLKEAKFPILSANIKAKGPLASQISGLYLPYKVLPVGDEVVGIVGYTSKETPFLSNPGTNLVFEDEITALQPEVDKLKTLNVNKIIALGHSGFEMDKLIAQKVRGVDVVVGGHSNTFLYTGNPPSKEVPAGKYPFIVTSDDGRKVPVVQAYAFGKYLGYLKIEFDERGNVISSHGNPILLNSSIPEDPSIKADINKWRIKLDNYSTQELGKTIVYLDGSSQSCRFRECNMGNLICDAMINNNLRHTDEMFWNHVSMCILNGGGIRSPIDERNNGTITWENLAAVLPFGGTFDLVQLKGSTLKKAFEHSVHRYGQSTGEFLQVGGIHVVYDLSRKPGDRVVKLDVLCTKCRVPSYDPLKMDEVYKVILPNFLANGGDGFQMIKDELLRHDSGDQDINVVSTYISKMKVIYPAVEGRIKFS
In short: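 Compounds tested as 15-point, 3-fold dilution series (300 μM to 0.0002 μM) in DMSO. Kinetic absorbance at 360 nm read every minute for 10–20 min, initial velocity taken from the linear portion.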

[1] = biological target: T2, CD73 on U138 human neuroglioma cells (Homo sapiens, UniProt P21589); test: CD73 Cell-Based Assay (inorganic phosphate from AMP, malachite green); conditions: AMP substrate, 2 hours at 37° C., read-out: CD73 Cell-Based assay IC50
T2 construct: U138 cells were obtained from ATCC and cultured in DMEM with 10% FBS; host or cells: U138 human neuroglioma cells
T2 sequence (P21589 27-549): T1 sequence (P21589 27-549)
In short: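 U138 cells, seeded the day before at 2500 per well, were washed and given AMP substrate (200 μM in the added mixture, before dilution into the buffer) together with compound. After 2 h at 37 °C in 5% CO2, inorganic phosphate in the supernatant was measured with malachite green.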

Row | Compound | IC50 (Human CD73) [nM] | IC50 [1] [nM]
1 | N#Cc1c(Cl)nc2c(ccn2[C@@H]2O[C@H](CS(=O)(=O)CP(=O)(O)O)[C@@H](O)[C@@H]2F)c1NC1CCCC1 [Compound 170] | < 10 | < 10
2 | N#Cc1c(Cl)nc2c(cnn2[C@@H]2O[C@H](CS(=O)(=O)CP(=O)(O)O)[C@@H](O)[C@H]2O)c1NC1CC(F)(F)C1 [Compound 129] | < 10 | < 10
3 | N#Cc1c(Cl)nc2c(ccn2[C@@H]2O[C@H](COCP(=O)(O)O)[C@@H](O)[C@H]2O)c1NC1CC2(CCC2)C1 [Compound 155] | < 10 | < 10
4 | N#Cc1c(Cl)nc2c(ccn2[C@@H]2O[C@H](CS(=O)(=O)CP(=O)(O)O)[C@@H](O)[C@H]2O)c1N[C@H]1C[C@@H](F)C1 [Compound 149] | < 10 | < 10
5 | C[C@@H](Nc1c(C#N)c(Cl)nc2c1cnn2[C@@H]1O[C@H](COP(=O)(O)CP(=O)(O)O)[C@@H](O)[C@H]1O)c1ccc(C#N)cc1 [Compound 249] | < 10 | < 10
6 | N#Cc1nc2c(ccn2[C@@H]2O[C@H](CS(=O)(=O)CP(=O)(O)O)[C@@H](O)[C@H]2O)c(NC2CCC(F)(F)CC2)c1Cl [Compound 137] | < 10 | < 10
7 | N#Cc1c(Cl)nc2c(cnn2[C@@H]2O[C@H](CS(=O)(=O)CP(=O)(O)O)[C@@H](O)[C@H]2O)c1NC1CCC(F)(F)CC1 [Compound 130] | < 10 | < 10
8 | N#Cc1c(Cl)nc2c(cnn2[C@@H]2O[C@H](CS(=O)(=O)CP(=O)(O)O)[C@@H](O)[C@H]2O)c1NC1CC2CC2C1 (stereo partly drawn) [Compound 128] | < 10 | < 10
9 | N#Cc1c(Cl)nc2c(ccn2[C@@H]2O[C@H](COCP(=O)(O)O)[C@@H](O)[C@H]2O)c1NC1CC2CC2C1 (stereo partly drawn) [Compound 26] | < 10 | < 10
10 | N#Cc1nc2c(ccn2[C@@H]2O[C@H](CS(=O)(=O)CP(=O)(O)O)[C@@H](O)[C@H]2O)c(NC2CCCC2)c1Cl [Compound 210] | < 10 | < 10
11 | N#Cc1c(Cl)nc2c(ncn2[C@@H]2O[C@H](CS(=O)(=O)CP(=O)(O)O)[C@@H](O)[C@H]2O)c1NC1CC(F)C1 (stereo partly drawn) [Compound 117] | < 10 | < 10
12 | N#Cc1c(Cl)nc2c(ccn2[C@@H]2O[C@H](COCP(=O)(O)O)[C@@H](O)[C@H]2O)c1N1CC(F)(F)C1 [Compound 65] | < 10 | < 10
